The source of these data is PMC3646678, “Sodium-calcium exchangers in rat trigeminal ganglion neurons” (Molecular Pain, 2013).

In this test the test system is T1, NCX1 (Na+-Ca2+ exchanger).
T1 construct: gene Slc8a1
In words: fura-2 Ca2+ influx by reverse NCX activity (Li+ for Na+ substitution) in native rat TG neurons. It counts as cell-based.
As a reminder, the IC50 is the midpoint of a concentration-inhibition curve. High values mean weaker potency, low ones greater potency. Compound `N=C(N)SCCc1ccc(OCc2ccc([N+](=O)[O-])cc2)cc1` [KB-R7943] had an IC50 of 3080 nM. Compound `CCOc1ccc(Oc2ccc(OCc3cc(F)ccc3F)cc2)c(N)c1` [SEA0400, 2-[4-[(2,5-difluorophenyl)methoxy]phenoxy]-5-ethoxyaniline] yielded an IC50 of 30 nM. In turn, `CCOC(=O)C1CSC(Cc2ccc(OCc3ccc([N+](=O)[O-])cc3)cc2)N1` (stereo not drawn) [SN-6] displayed an IC50 of 510 nM.
